Our source for the IC50 and Hill coefficient values is ChEMBL document CHEMBL1131237 (J Med Chem, 1998).

Assay [1] concerns the target T1, Sodium-dependent dopamine transporter (Rattus norvegicus, UniProt P23977). Description: Ability to displace [3H]WIN-35428 binding to dopamine transporter from rat striatal membranes.
Assay [2] has as its target T1, Sodium-dependent dopamine transporter. Description: Inhibition of high-affinity uptake of [3H]dopamine at dopamine transporter into rat striatal nerve endings (synaptosomes). Format: subcellular, Brain.
For assay [3], the target named is Sodium-dependent dopamine transporter (Rattus norvegicus) (UniProt P23977). The experiment in a line: Hill coefficient was determined.
Sequence of Sodium-dependent dopamine transporter (Rattus norvegicus) (P23977 whole entry): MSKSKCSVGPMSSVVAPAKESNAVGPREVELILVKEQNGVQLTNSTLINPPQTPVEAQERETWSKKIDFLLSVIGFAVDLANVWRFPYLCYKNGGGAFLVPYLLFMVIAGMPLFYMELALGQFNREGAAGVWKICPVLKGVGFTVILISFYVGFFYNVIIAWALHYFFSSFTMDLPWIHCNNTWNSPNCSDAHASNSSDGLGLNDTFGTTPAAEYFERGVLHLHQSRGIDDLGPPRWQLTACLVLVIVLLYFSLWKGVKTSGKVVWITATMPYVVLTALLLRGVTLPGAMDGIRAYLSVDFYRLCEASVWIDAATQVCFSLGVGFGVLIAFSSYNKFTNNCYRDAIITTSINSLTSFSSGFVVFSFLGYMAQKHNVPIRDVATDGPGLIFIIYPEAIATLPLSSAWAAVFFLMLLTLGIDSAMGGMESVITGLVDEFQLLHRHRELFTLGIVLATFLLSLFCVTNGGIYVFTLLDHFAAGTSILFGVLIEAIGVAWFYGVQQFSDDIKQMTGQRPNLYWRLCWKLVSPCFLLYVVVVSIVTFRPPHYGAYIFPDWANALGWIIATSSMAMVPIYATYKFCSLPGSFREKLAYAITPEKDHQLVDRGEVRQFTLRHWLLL
Assay [4] has the same target.

Several values for one entry are separate records, joined by “and”; a condition that tells them apart may be missing. Equal values may be shown once.

T1 sequence (P23977 whole entry): as above

Broadly, the IC50 is the point on the concentration scale where inhibition reaches its midpoint. A higher IC50 goes with weaker potency in that assay. By Hill coefficient is commonly meant the slope factor of the fitted curve. For the molecule `COC(=O)[C@H]1CN(C)CC[C@H]1c1ccc(Cl)cc1`, the figures for the IC50 in assay [1] and in assay [2] were 653 nM and 195 nM, respectively. In assay [3], the Hill coefficient was 0.96 and 1.08.

In the case of `CN1CC[C@@H](c2ccc(Cl)cc2)C(CO)C1` (stereo partly specified), the IC50 in assay [1] came to 442 nM. Further, the Hill coefficient in assay [4] was 0.66.

For `CC(=O)OCC1CN(C)CC[C@H]1c1ccc(Cl)cc1` (stereo partly specified), the IC50 in assay [1] was 928 nM; in assay [2] it was 2020 nM. For the same molecule, the Hill coefficient in assay [4] is 0.89 and 1.07.

Regarding `COC(=O)C1CN(C)CC[C@@H]1c1ccccc1` (stereo partly specified), the IC50 in assay [1] was 769 nM. The same molecule came in with a Hill coefficient in assay [3] of 1.02.

In the case of `CC(=O)OC[C@@H]1CN(C)CC[C@@H]1c1ccc(Cl)cc1`, in assay [4], the Hill coefficient is 0.66 and 1.03.

On to `CCC[C@@H]1CN(C)CC[C@@H]1c1ccc(Cl)cc1`, for which the Hill coefficient in assay [3] was 0.64 and 1.04.

Take `COC(=O)[C@@H]1CN(C)CC[C@@H]1c1ccc(Cl)cc1`: the Hill coefficient in assay [4] is 0.78 and 0.94.

As to `COC(=O)[C@H]1CN(C)CC[C@@H]1c1ccc(Cl)cc1` (racemic), in assay [1], the IC50 amounted to 197 nM. The molecule also gave a Hill coefficient in assay [4] of 0.91.

Consider `COC(=O)[C@@H]1CN(C)CC[C@@H]1c1ccc(Cl)cc1` (racemic), for which the Hill coefficient in assay [4] was 0.91 and 1.04.

Turning to `CC(=O)OCC1CN(C)CC[C@@H]1c1ccc(Cl)cc1` (single isomer, unassigned), the IC50 in assay [1] came out at 461 nM. The Hill coefficient in assay [4] stood at 0.76.

For the molecule `CCCC1CN(C)CC[C@@H]1c1ccc(Cl)cc1` (single isomer, unassigned), the IC50 in assay [1] was 17.2 nM; in assay [2], 23.2 nM. In addition, the Hill coefficient in assay [3] is 0.85 and 1.03.

In turn, `COC(=O)C1CN(C)CC[C@H]1c1ccc(Cl)cc1` (single isomer, unassigned) displayed an IC50 in assay [2] of 5090 nM. In assay [3], the Hill coefficient is 0.81 and 0.95.

For `COC(=O)C1CN(C)CC[C@@H]1c1ccc(Cl)cc1` (single isomer, unassigned), the Hill coefficient in assay [4] was 0.78 and 0.97.

Regarding `COC(=O)[C@H]1[C@@H](OC(=O)c2ccccc2)CC2CC[C@H]1N2C` (single isomer, unassigned), the Hill coefficient in assay [4] was 0.87 and 1.06.

As for `CN1CC[C@H](c2ccc(Cl)cc2)C(CO)C1` (single isomer, unassigned; (+)-13) [listing 1 of 2 here], the IC50 in assay [1] amounted to 240 nM; in assay [2], 683 nM.

In the case of `CN1CC[C@H](c2ccc(Cl)cc2)C(CO)C1` (single isomer, unassigned; (+)-13) [listing 2 of 2 here], in assay [4], the Hill coefficient was 0.85 and 1.09.

As to `CN1CC[C@H](c2ccc(Cl)cc2)C(CO)C1` (single isomer, unassigned; (-)-5) [listing 1 of 2 here], the IC50 was found to be 75.3 nM in assay [1] and 49 nM in assay [2].

For `CN1CC[C@H](c2ccc(Cl)cc2)C(CO)C1` (single isomer, unassigned; (-)-5) [listing 2 of 2 here], in assay [4], the Hill coefficient was 0.56 and 1.04.
